Data published in patent publication US5096929A, “2-amino-1,2,3,4-tetrahydronaphthalene derivatives with cardiovascular activity, process for their preparation and pharmaceutical compositions containing them” (Chiesi Farmaceutici S.p.A., priority 1989, dated 1992).
Counter-ions that a name gives are not always drawn. Like-named read-outs stand apart in the source and are kept apart here.

Key:
isolated rat left atrium = test: Isolated rat left atrium: inotropic activity (force); details: for EC50 / Emax: Rattus norvegicus; for EC50: read-out: EC50, left atrium (force); for Activity in isolated rat left atrium and right atrium (in words): Table I and text; for Inotropic activity of diastereoisomeric mixture (in words): rat isolated left atrium
Procedure: (§1) The inotropic and chronotropic effects of compound (Ia) of the invention were determined in vitro using, respectively, isolated rat left atrium and right atrium.
Left atrium:inotrocic activity
The atria were subjected to a 0.5 g starting tension and suspended in a bath containing aerated Krebs-Henseleit j solution with 95% O2 and […] kept at 32.C. The preparation was stimulated at a 4 Hz frequency with pulses during 5 msec each. The contraction strength was detected by an isometric transducer and recorded on a microndynamometer.
(§2) The results were expressed as the percentage of the response obtained with a maximal dose ([…]) of isoproterenol which was determined at the beginning of the test. In Table 1 the potency (EC50=effective concentration inducing the 50% of the maximal effect) and the relative intrinsic activity (expressed as α and compared with that of isoproterenol, taken=1) are shown.
(§3) The effects of the compounds were evaluated in rat isolated atria according to the previously described method.
(§4) Table 3. Potency (EC50) and intrinsic activity (α;isoproterenol=1) on the isolated rat left atrium (Inotropic activity) and right atrium (chronotropic activity).

[1] = test system: isolated rat right atrium; test: Isolated rat right atrium: chronotropic activity (frequency); details: Rattus norvegicus; for EC50: read-out: EC50, right atrium (frequency)
Procedure: as §1
Right atrium:chronotrpic activity
The preparation was prepared in the same way and under the same conditions as described above, but was not subjected to electric stimulation. Frequency was monitored by a cardiotachograph.
as §2, §3, §4

[2] = target: T1, beta-2 adrenergic receptors (Cavia porcellus, UniProt Q8K4Z4); test: Isolated guinea-pig trachea: interactions with beta-2 adrenergic receptors (relaxation of carbachol contraction); details: for EC50: guinea-pig trachea, carbachol 3×10^-7 M
T1 construct: Trachea strips were isolated and prepared according to the method described by Emerson J and Machay D; from tissue; host or cells: guinea-pig isolated trachea strips
Procedure: The selectivity of this interaction has been studied by evaluating the effects on beta-2 adrenergic receptors, in the guinea-pig isolated trachea, using CHF 1026 as reference compound.
Isolated guinea-pig trachea: interactions with beta-2 adrenergic receptors
Trachea strips were isolated and prepared according to the method described by Emerson J and Machay D in J Pharm Pharmacol 1979, 31, 798, immersed in Krebs-Henseleit solution (37° C., 95% O2 +5% CO2), subjected to an initial tension of 1 g and contracted with carbachol (3×10^-7 M).
Dose-response curves of CHF 1255 and CHF 1026 were recorded in the absence and in the presence of 10^-6 M propranolol, used as antagonist and added to the bath before the stimulation with carbachol.
The obtained results are shown in Table 2, expressed as potency (EC50 calculated from t he dose--response curve) and intrinsic activity (α, isoproternol=1).

[3] = test system: arterial rat hind quarter; test: Rat perfused hind quarter; vasodilating action; details: for Emax: Rattus norvegicus; for ED40, K+ induced contraction / ED40, norepinephrine induced contraction / ED40, 5-HT induced contraction: dose decreasing contraction by 40%; for ED40, K+ induced contraction: K+ 40 mM; for ED40, 5-HT induced contraction: serotonin 5×10^-7 M
Procedure: Rat perfused hind quarter; vasodilating action
The vasodilating effect of CHF 1255 has been evaluated in the arterial rat hind quarter perfused with Krebs-Henseleit solution at constant flow.
The increase of arterial resistance was induced by K^+ -enriched solution (40 mM), norepinephrine (5×10^-6 M) and serotonin (5×10^-7 M).
Papaverine and prazosin, powerful α-blocker vasodilator, were used as reference compounds.
ED40 =dose (moles) decreasing of 40% the contraction induced by the agonist. 100% was considered as the complete recduction of contraction.

anesthetized dog = test: Anesthetized dog: cardiovascular activity; format: in vivo, Beagle dog; details: anesthetized dog, i.v.
Procedure: The interesting hemodynamic properties of CHF 1255 were confirmed in vivo in the anesthetized dog.
Anesthesized dog: cardiovascular activity
Beagle dogs were anesthetized with sodium pentobarbital (30 mg/kg iv) thoracotomized and monitored by recording cardiocirculatory parameters.
CHF 1255 and the reference drugs (amrinone and xamoterol) were administered i.v. in a bolus.
CHF 1255 at the doses of 0.3-1.3 μmoles/kg i.v. confirmed its activity in changing hemodynamic parameters.

beta-1 = details: background art, cited from earlier work
[4] = Table I, isolated rat left atrium, 4 Hz stimulation, confidence limits in parentheses
[5] = Table I, isoproterenol taken=1, confidence limits in parentheses, read-out: α (intrinsic activity), left atrium (force)
[6] = Table I, isolated rat right atrium, confidence limits in parentheses
[7] = Table I, isoproterenol taken=1, confidence limits in parentheses, read-out: α (intrinsic activity), right atrium (frequency)
[8] = Table 3, inotropic activity, rat left atrium
[9] = Table 3, isoproterenol=1, read-out: α, left atrium (force)
[10] = Table 3, chronotropic activity, rat right atrium
[11] = Table 3, isoproterenol=1, read-out: α, right atrium (frequency)

T1 sequence (Q8K4Z4 whole entry): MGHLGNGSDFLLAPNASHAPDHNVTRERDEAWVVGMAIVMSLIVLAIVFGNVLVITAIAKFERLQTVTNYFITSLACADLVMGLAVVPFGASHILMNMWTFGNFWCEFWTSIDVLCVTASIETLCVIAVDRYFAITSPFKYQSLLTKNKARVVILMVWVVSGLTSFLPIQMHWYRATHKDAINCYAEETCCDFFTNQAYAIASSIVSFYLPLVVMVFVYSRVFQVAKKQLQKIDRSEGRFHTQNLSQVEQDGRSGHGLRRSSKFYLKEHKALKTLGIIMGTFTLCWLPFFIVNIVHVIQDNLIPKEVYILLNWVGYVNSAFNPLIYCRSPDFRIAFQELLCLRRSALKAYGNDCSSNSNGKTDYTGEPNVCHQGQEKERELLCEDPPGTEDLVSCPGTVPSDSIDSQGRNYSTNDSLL

`CC(CCc1ccc(O)cc1)NC1CCc2cc(O)c(O)cc2C1` (centres unmarked) [CHF 1026, 2-[1-(4-hydroxyphenyl)-but-3-ylamino]-6,7-dihydroxy-1,2,3,4-tetrahydronaphthalene, reference compound] gave an EC50 (isolated rat left atrium; [4]) of 900 nM, an Emax (isolated rat left atrium; [5]) of 81% and an EC50 [1, 6] of 130 nM. For the same compound, the Emax [1, 7] was 86%, the “Effect of propranolol on dose-response curve” value ([2]; 10^-6 M propranolol) was “parallelely shifted to the right, showing a competitive antagonistic action” and the Emax ([2]; guinea pig, isoproterenol=1, without propranolol, read-out: α in absence of propranolol) was 99%. The EC50 ([2]; with 10^-6 M propranolol, read-out: EC50 in presence of propranolol) was 130 µM, the EC50 ([2]; without propranolol, read-out: EC50 in absence of propranolol) was 0.23 µM and the “α in presence of propranolol” value ([2]; isoproterenol=1, with 10^-6 M propranolol) was 0.94.

In the case of `COc1ccc2c(c1OC)CCC(NCC(O)c1ccc(O)cc1)C2` (centres unmarked) [CHF 1296], the “Activity in isolated rat left atrium and right atrium (in words)” value (isolated rat left atrium) is reported as “completely inactive”.

In the case of `COc1ccc2c(c1OC)CCC(NCC(O)c1cccc(O)c1)C2` (centres unmarked) [CHF 1297], the “Activity in isolated rat left atrium and right atrium (in words)” value (isolated rat left atrium) is reported as “completely inactive”.

For `COc1ccc2c(c1OC)CCC(N[C@H](C)[C@@H](O)c1ccc(O)cc1)C2` (some centres unmarked) [CHF 1388, (αR,βS)-5,6-dimethoxy-2-[2-(4-hydroxyphenyl)-2-hydroxy-1-methylamino]-2-hydroxy-I-methylethylamino]--,2,3,4-tetrahydronaphthalene hydrochloride], the “Inotropic activity of diastereoisomeric mixture (in words)” value (isolated rat left atrium) was “did not show any inotropic activity” and the “Contribution to vasodilating activity of CHF 1255” value [3] was “vasodilating activity of CHF 1255 is mainly due to CHF 1388”.

With `COc1ccc2c(c1OC)CCC(N[C@@H](C)[C@H](O)c1ccc(O)cc1)C2` (some centres unmarked) [CHF 1389, (αS, βR)-5,6-Dimethoxy-2-[2-(4-hydroxyphenyl)-2-hydroxy-1-methylethylemino]-1,2,3,4-tetrahydronaphthalene hydrochloride] the “Inotropic activity of diastereoisomeric mixture (in words)” value (isolated rat left atrium) was “as effective as CHF 1255 in the rat isolated left atrium”.

For `Nc1cc(-c2ccncc2)c[nH]c1=O` [amrinone], the EC50 (isolated rat left atrium; [8]) was 26600 nM, the Emax (isolated rat left atrium; [9]) was 29% and the EC50 [1, 10] was 155000 nM. For the same compound, the Emax [1, 11] was 147%.

`NCCc1ccc(O)c(O)c1` [dopamine] showed an EC50 (isolated rat left atrium; [8]) of 1190 nM, an EC50 (isolated rat left atrium; [4]) of 1200 nM and an Emax (isolated rat left atrium; [9]) of 95%. The Emax (isolated rat left atrium; [5]) was 95%, the EC50 [1, 10] was 1890 nM and the EC50 [1, 6] was 1900 nM. It also gave an Emax [1, 11] of 106% and an Emax [1, 7] of 106%.

With `COc1ccc(Cc2nccc3cc(OC)c(OC)cc23)cc1OC` [papaverine, Papaverine] the “Activity against contraction by the different agents (in words)” value ([3]; K+, norepinephrine, serotonin) was “same ED40 for the different experimental conditions”, the Emax ([3]; read-out: α (efficacy), 5-HT induced contraction) was 90% and the Emax ([3]; read-out: α (efficacy), K+ induced contraction) was 90%. The Emax ([3]; read-out: α (efficacy), norepinephrine induced contraction) was 95%, the “ED40, K+ induced contraction” value [3] was 6.5e-08 mol and the “ED40, norepinephrine induced contraction” value ([3]; norepinephrine 5×10^-6 M) was 4.5e-08 mol. For the same compound, the “ED40, 5-HT induced contraction” value [3] was 5e-08 mol.

With `COc1cc2nc(N3CCN(C(=O)c4ccco4)CC3)nc(N)c2cc1OC` [prazosin] the Emax ([3]; 100% = complete reduction, norepinephrine 5×10^-6 M, read-out: α (efficacy), norepinephrine induced contraction) was 96%, the “ED40, K+ induced contraction” value [3] was “inactive” and the “ED40, norepinephrine induced contraction” value ([3]; norepinephrine 5×10^-6 M) was 1.5e-11 mol. The “ED40, 5-HT induced contraction” value [3] was “inactive”.

`O=C(NCCNCC(O)COc1ccc(O)cc1)N1CCOCC1` (centres unmarked) [xamoterol, xamoterol fumarate] showed an EC50 (isolated rat left atrium) of 4.98 nM, an Emax (isolated rat left atrium; read-out: α, left atrium (force)) of 33% and an EC50 [1] of 4.71 nM. For the same compound, the Emax ([1]; read-out: α, right atrium (frequency)) was 76%, the “Hemodynamic effects (in words)” value (anesthetized dog) was “negligible” and the “Agonistic action relative to isoproterenol” value (beta-1; % that of isoproterenol) was 40%. For the same compound, the “Tolerability (in words)” value (beta-1; vs prenalterol) was “better tolerated”.
